From the Bradley open melting point set (2014)
Where “and” joins values, the source holds several entries; their conditions need not be identical. Equal values may be shown once. Where a name gives a salt, the structure may show the parent alone.

Row | Structure (SMILES) | melting point
1 | O=[PH](O)c1ccccc1 [phenylphosphinic acid] | 84 °C
2 | O=C(O)c1ccccc1C(=O)O [phthalic acid] | 230 °C
3 | COC(=O)c1ccccc1C(N)=O [phthalic_acid,_methylester_amide] | 100 °C
4 | O=C(O)c1ccccc1C(=O)O [phthalic_acid] | 210 °C
5 | O=C1NC(=O)c2ccccc21 [phthalimide] | 234 °C
6 | CC(C)(O)C(C)(C)O [pinacol, anhydrous] | 44 °C
7 | CCC1(CC)C(=O)CCNC1=O [piperidione] | 102 °C
8 | O=Cc1ccc2c(c1)OCO2 [piperonal] | 37 °C
9 | O=C(O)c1ccc2c(c1)OCO2 [piperonylic acid] | 233 °C
10 | O=C(CCBr)N1CCN(C(=O)CCBr)CC1 [pipobroman] | 106 °C
11 | O=C(C1CCCCC1)N1CC(=O)N2CCc3ccccc3C2C1 (centres undefined) [praziquantel] | 136 °C
12 | CC=C1CCC2C3CCC4CC(OC(C)=O)CCC4(C)C3CCC12C (centres undefined) [pregn-17-en-3-yl acetate] | 119 °C
13 | CCCN(CCC)S(=O)(=O)c1ccc(C(=O)O)cc1 [probenecid] | 198 °C
14 | CN1CCN(CCCN2c3ccccc3Sc3ccc(Cl)cc32)CC1 [prochlorperazine] | 228 °C
15 | CC(CN1c2ccccc2Sc2ccccc21)N(C)C (centres undefined) [promethazine] | 60 °C
16 | CCC(=O)O [propanoic acid] | -20.7 °C
17 | CCC(=O)O [propanoic_acid] | -21 °C
18 | CCC(=O)O [propionic acid] | -21 °C
19 | CCC(=O)c1ccccc1 [propiophenone] | 19 °C
20 | CNC(=O)Oc1ccccc1OC(C)C [propoxur] | 91.5 °C
21 | CCC(=O)O[C@](Cc1ccccc1)(c1ccccc1)[C@H](C)CN(C)C [propoxyphene] | 75.5 °C
22 | CCCOC(=O)c1ccc(O)cc1 [propyl 4-hydroxybenzoate] | 96 °C

Row | Structure (SMILES) | melting point
23 | CCCOC(=O)c1ccc(O)cc1 [propyl p-hydroxybenzoate] | 96 °C
24 | CCCOC(=O)c1ccc(O)cc1 [propyl paraben] | 97 °C and 96.5 °C (2×) and 96 °C
25 | CCCOC(C)=O [propyl_acetate] | -95 °C
26 | CC1CO1 (centres undefined) [propylene oxide] | -112 °C
27 | CCCOC(=O)c1ccc(O)cc1 [propylparaben] [listing 1 of 2 here] | 97 °C
28 | CCCOC(=O)c1ccc(O)cc1 [propylparaben] [listing 2 of 2 here] | 96.5 °C
29 | NC(=O)c1cnccn1 [pyrazinamide] | 190 °C and 189 °C
30 | c1cc2ccc3cccc4ccc(c1)c2c34 [pyrene] | 156 °C
31 | [O-][n+]1ccccc1 [pyridine n-oxide] | 64 °C
32 | O=Cc1cccnc1 [pyridine-3-carboxaldehyde] | 8 °C
33 | c1ccncc1 [pyridine] | -42 °C
34 | O=C(O)c1cc(C(=O)O)c(C(=O)O)cc1C(=O)O [pyromellitic acid] | 283 °C
35 | C1CCNC1 [pyrrolidine] | -63 °C
36 | O=C(O)c1ccc2ccccc2n1 [quinaldic acid] | 158 °C
37 | O=Cc1cnc2ccccc2c1 [quinoline-3-carboxaldehyde] | 70 °C
38 | Oc1ccc(/C=C/c2cc(O)cc(O)c2)cc1 [resveratrol] | 254 °C
39 | CC1=C(/C=C/C(C)=C/C=C/C(C)=C/C(=O)O)C(C)(C)CCC1 [retinoic acid] | 181 °C
40 | N/N=C/c1ccccc1O [salicylaldehyde hydrazone] | 97 °C
41 | O=C(O)c1ccccc1O [salicylic acid] | 158 °C and 157 °C
42 | O=C(O)c1ccccc1O [salicylic_acid] | 160 °C
43 | Oc1ccccc1C=Nc1ccccc1 [salicylideneaniline] | 51 °C
44 | O=C(O)CCCCCCCCC(=O)O [sebacic acid] | 133 °C

Row | Structure (SMILES) | melting point
45 | CC1=C(C)C(=O)C(C(CCCCCC(=O)O)c2ccccc2)=C(C)C1=O (centres undefined) [seratrodast] | 128 °C
46 | CCC(C)(C)C(=O)O[C@H]1C[C@@H](C)C=C2C=C[C@H](C)[C@H](CC[C@@H]3C[C@@H](O)CC(=O)O3)[C@H]21 [simvastatin] | 136 °C
47 | CC(=O)S[C@@H]1CC2=CC(=O)CC[C@]2(C)[C@H]2CC[C@@]3(C)[C@@H](CC[C@@]34CCC(=O)O4)[C@H]12 [spironolactone] | 134 °C
48 | CCCCCCCCCCCCCCCCCC(=O)O [stearic acid] | 71 °C
49 | C(=Cc1ccccc1)c1ccccc1 [stilbene] | 126 °C
50 | O=C(O)CCCCCCC(=O)O [suberic acid] | 143 °C
51 | O=C(O)CCC(=O)O [succinic acid] | 188 °C and 187 °C
52 | O=C(O)CCC(=O)O [succinic_acid] | 188 °C
53 | N#CCCC#N [succinonitrile] | 56 °C
54 | CC(=O)NS(=O)(=O)c1ccc(N)cc1 [sulfacetamide] [listing 1 of 2 here] | 183 °C
55 | CC(=O)NS(=O)(=O)c1ccc(N)cc1 [sulfacetamide] [listing 2 of 2 here] | 182 °C
56 | Nc1ccc(S(=O)(=O)Nc2ncccn2)cc1 [sulfadiazine] | 255 °C
57 | Cc1ccnc(NS(=O)(=O)c2ccc(N)cc2)n1 [sulfamerazine] [listing 1 of 2 here] | 236 °C
58 | Cc1ccnc(NS(=O)(=O)c2ccc(N)cc2)n1 [sulfamerazine] [listing 2 of 2 here] | 234 °C
59 | NS(N)(=O)=O [sulfamide] | 92 °C
60 | Nc1ccc(S(=O)(=O)Nc2ccccn2)cc1 [sulfapyridine] | 192 °C
61 | N#Cc1ccc(C#N)cc1 [terephthalonitrile] | 226 °C
62 | CC(C)(C)OO [tert-Butyl hydroperoxide] | -3 °C
63 | CC(C)(C)O [tert-butyl alcohol, anhydrous] | 25 °C
64 | CC(C)(C)N [tert-butylamine] | -67 °C
65 | O=C5\C=C4/C(C3CCC2(C(CCC2OC(=O)c1ccccc1)C3CC4)C)(C)CC5 (centres undefined) [testosterone benzoate] | 195 °C
66 | O=C4\C=C2/[C@]([C@H]1CC[C@@]3([C@@H](O)CC[C@H]3[C@@H]1CC2)C)(C)CC4 [testosterone] | 155 °C and 154 °C

Row | Structure (SMILES) | melting point
67 | Oc1c(Br)c(Br)c(O)c(Br)c1Br [tetrabromohydroquinone] | 244 °C
68 | C1CCOC1 [tetrahydrofuran] | -108 °C
69 | C[SiH](C)O[Si](O[SiH](C)C)(O[SiH](C)C)O[SiH](C)C [tetrakis(dimethylsiloxy)silane] | -60 °C
70 | CO[Si](OC)(OC)OC [tetramethoxysilane] | 5 °C
71 | O=C1C(c2ccccc2)=C(c2ccccc2)C(c2ccccc2)=C1c1ccccc1 [tetraphenylcyclopentadienone] | 218 °C
72 | O=C1CCC(N2C(=O)c3ccccc3C2=O)C(=O)N1 (centres undefined) [thalidomide] [listing 1 of 2 here] | 270 °C
73 | O=C1CCC(N2C(=O)c3ccccc3C2=O)C(=O)N1 (centres undefined) [thalidomide] [listing 2 of 2 here] | 270 °C and 275 °C
74 | Cn1cnc2c1c(=O)[nH]c(=O)n2C [theobromine] | 357 °C
75 | Cn1c(=O)c2[nH]cnc2n(C)c1=O [theophylline] | 272 °C and 274 °C
76 | c1cscn1 [thiazole] | -33 °C
77 | NC(=S)c1ccccc1 [thiobenzamide] | 116 °C
78 | O=S(Br)Br [thionyl bromide] | -52 °C
79 | OB(O)c1ccsc1 [thiophene-3-boronic acid] | 167 °C
80 | CN(C)C1=NC(=O)C(c2ccccc2)O1 (centres undefined) [thozalinone] | 133 °C
81 | Cc1c[nH]c(=O)[nH]c1=O [thymine] | 317 °C
82 | CCCCNC(=O)NS(=O)(=O)c1ccc(C)cc1 [tolbutamide] | 129 °C
83 | O=C(O)/C=C/c1ccccc1Br [trans-2-bromocinnamic acid] | 218 °C
84 | C/C=C/CCC [trans-2-hexene] | -133 °C
85 | O=C(O)/C=C/c1ccccc1[N+](=O)[O-] [trans-2-nitrocinnamic acid] | 247 °C
86 | C/C=C/CC [trans-2-pentene] | -140 °C
87 | COc1ccc(/C=C/C=O)cc1 [trans-4-methoxycinnamaldehyde] | 58 °C
88 | CC(=O)/C=C/c1ccccc1 [trans-4-phenyl-3-buten-2-one] | 41 °C

Row | Structure (SMILES) | melting point
89 | ClC1=C(Cl)C2(Cl)C3C(Cl)C(Cl)CC3C1(Cl)C2(Cl)Cl (stereo not drawn) [trans-Chlordane] | 106 °C
90 | C(=C\c1ccccc1)/c1ccccc1 [trans-Stilbene] | 125 °C
91 | ClC1=C(Cl)C2(Cl)C3C(Cl)C(Cl)CC3C1(Cl)C2(Cl)Cl (stereo not drawn) [trans-gamma-chlordane] | 106 °C
92 | C(=C\c1ccccc1)/c1ccccc1 [trans-stilbene] | 125 °C and 124 °C
93 | CCCCP(CCCC)CCCC [tri-n-butylphosphine] | -65 °C
94 | CCCCCCCCN(CCCCCCCC)CCCCCCCC [tri-n-octylamine] | -39 °C
95 | CC(=O)O[Si](C)(OC(C)=O)OC(C)=O [triacetoxy(methyl)silane] | 43 °C
96 | OCCN(CCO)CCO [triethanolamine] | 20 °C
97 | CCOC(=O)CC(O)(CC(=O)OCC)C(=O)OCC [triethyl citrate] | -55 °C
98 | CC[SiH](CC)CC [triethylsilane] | -157 °C
99 | O=C(O)C(F)(F)F [trifluoroacetic acid] | -15 °C
100 | O=S(=O)(O)C(F)(F)F [trifluoromethanesulfonic acid] | -40 °C
101 | COc1cc(Cc2cnc(N)nc2N)cc(OC)c1OC [trimethoprim] | 201 °C
102 | COB(OC)OC [trimethyl borate] | -34 °C
103 | CC(C)(C)C=O [trimethylacetaldehyde] | 6 °C
104 | CC(C)(C)C(=O)Cl [trimethylacetyl chloride] | -57 °C
105 | C[Si](C)(C)N=C=S [trimethylsilyl isothiocyanate] | -33 °C
106 | SC(c1ccccc1)(c1ccccc1)c1ccccc1 [triphenylmethyl mercaptan] | 106 °C
107 | COc1cccc(OC)c1P(c1c(OC)cccc1OC)c1c(OC)cccc1OC [tris(2,6-dimethoxyphenyl)phosphine] | 146 °C
108 | COc1ccccc1P(c1ccccc1OC)c1ccccc1OC [tris(2-methoxyphenyl)phosphine] | 200 °C
109 | COc1cccc(P(c2cccc(OC)c2)c2cccc(OC)c2)c1 [tris(3-methoxyphenyl)phosphine] | 114 °C
